# Results taken from patent publication US5968932A, “Method of inhibiting sleep apnea” (Gruenenthal GmbH, priority 1998, dated 1999).
# Experiments:
# [1] = test system: standard English bulldog test model; experiment: English bulldog test model of obstructive sleep apnea (hypersomnolence and sleep disordered breathing), Example 1; type: in vivo; conditions: 100 μg/kg i.v.; for Sleep disordered breathing index (SDBI): REM events per REM time/60 min; for Total sleep time (TST): eight hour observation
# Method: Five bulldogs were implanted with subcutaneous electroencephalogram (EEG) electrodes and instrumented with respiratory oscillation belts (Respitrace™) to measure abdominal and ribcage movements and with an ear oximeter to measure oxygen saturation (SaO2). […] Montirelin in a sterile saline vehicle was administered intravenously to the test animals at a dosage of 100 μg/kg. Each test with active substance was preceded by a control day in which only the saline vehicle was administered. The effect of Montirelin on hypersomnolence and sleep disordered breathing was assessed.
# Hypersomnolence was determined by sleep latency and total sleep time. Total sleep time (TST) is expressed as a percentage calculated by dividing the total sleep time in minutes by the total study time in minutes and multiplying the resulting quotient by 100 according to the formula: [formula]
# Sleep latency was defined as the total minutes until the onset of non-REM sleep.
# Sleep disordered breathing was evaluated in terms of a sleep disordered breathing index (SDBI) defined as the total number of rapid eye movement (REM) events divided by a quantity equal to the total REM time divided by 60 minutes according to the formula: [formula] A REM event (apnea) is defined as an incident of decreased or absent respiration and a decrease of 4% or more in the saturated blood oxygen (SaO2) level occurring during REM sleep.
# [2] = test system: bulldog with moderately severe obstructive sleep apnea; experiment: Dose study in one bulldog with moderately severe obstructive sleep apnea, Example 2; type: in vivo; conditions: for non-REM sleep RDI (respiratory disturbance incidents): saline control 6; for Arousal index: saline control 12; for REM sleep RDI (respiratory disturbance incidents): saline control 44; for Lowest O2 saturation: saline control 89; for Mean sleep efficiency: six hours, saline control 39%
# Method: In a further experiment, Montirelin was administered on different days at varying dosage levels to one bulldog with moderately severe obstructive sleep apnea. In this bulldog, a double-blind study was conducted in which saline was administered as a control and four different doses of Montirelin (100 mg/kg, 200 mg/kg, 400 mg/kg and 800 mg/kg) were administered. The dog was studied on four different days at each dose of the active compound. […] The order of different doses of drug or saline control was randomized, and a wash-out period of two days was allowed after study of a particular dose. During the studies, respiratory movement, oxygen saturation and electroencephalogram for sleep state were measured. The number of sleep-disordered breathing events or respiratory disturbance incidents (RDI) per hour was calculated according to the formula given above both for non-rapid eye movement (non-REM) sleep, which occupies the majority of sleep time, and rapid eye movement (REM) sleep. Mean sleep efficiency and arousal index were also determined.
# [3] = test system: Sprague-Dawley rats; experiment: Subacute repeated-dose (five weeks) intravenous toxicity with four-week recovery study in rats; type: in vivo, Sprague-Dawley rats (SPF Slc:SD)
# Method: The subacute repeated-dose intravenous toxicity of Montirelin was investigated in Sprague-Dawley rats treated repeatedly at 0.05, 0.5,5 and 50 mg/kg/day for five weeks, and the reversibility of its toxic effects was also investigated by a four-week recovery study.
# […] SPF Slc:SD rats of both sexes (age: four weeks, body weight: 70.0-81.6 g) were purchased from Shizuoka Agriculture Cooperative Association for Laboratory Animals. During a one-week quarantine/acclimation period, the animals were measured for body weight and observed for any general symptoms, and healthy animals showing normal growth were selected and used in the experiment at the age of five weeks.
# Males and females were used in five groups (including the control group) of 10 animals/sex, and additional 10 animals/sex were added to the control, 0.5 mg/kg and 50 mg/kg groups to investigate the reversibility of the toxic effect of the test substance. All these animals were randomized to each group by weight stratification so that the differences in initial mean body weight were within 2% between groups. At the start of the treatment, the body weight was 116.5-132.9 g for males and 107.0-123.4 g for females.
# The maximal dose was set at […] lower doses were set at 5, 0.5 and 0.05 mg/kg using a common ratio of 1/10. This study also included the vehicle control group.
# Dosing solutions were prepared by dissolving a weighed amount of the test substance in physiological saline at a concentration of 1 W/V % using a volumetric flask. Lower dosing solutions were obtained by successive 10-fold dilution of the initial solution. The respective dosing solution was repeatedly administered intravenously once daily for 35 days into the tail vein at a rate of 0.2 ml/10 sec. using a 1/4 syringe for injection. The treatment was given at a constant volume of 0.5 ml/100 g body weight in all dose groups, and the control group was treated with physiological saline at the same volume in the same manner.
# Clinical signs in all animals were observed daily between two and four hours after dosing according to Irwin's method of comprehensive observational assessment, and the type, severity, onset time and disappearance time of toxic symptoms were recorded. During the recovery period, the clinical observation was performed once daily in the morning in the same manner. The body weight, food consumption and water consumption were measured in all animals three times weekly in the morning throughout the treatment and recovery periods and recorded.
# [4] = test system: central nervous system; conditions: known compound, background statement; cited from earlier work
compound,measurement,setting,value
"C[C@H]1SC[C@@H](C(=O)N[C@@H](Cc2c[nH]cn2)C(=O)N2CCC[C@H]2C(N)=O)NC1=O.O.O.O.O [Montirelin, (3R, 6R) -N-[(6-methyl-5-oxo-3-thiomorpholinyl)carbonyl]-L-histidyl-L-prolinamide tetrahydrate]","Awakening / sleep pattern, result in words",[1]; versus saline control,awaken less frequently and thus exhibit markedly better consolidated sleep patterns
same,Reduction in sleep disordered breathing,[1]; versus saline control,approximately 50%
same,"Sleep depth, result in words",[1]; versus saline control,sleep may be somewhat shallower
same,"Total sleep time, result in words",[1]; versus saline control,only a slight reduction in total sleep time
same,"Sleep disordered breathing index (SDBI), average","[1]; Average of 5 dogs, saline control 15.9 ± 11",8.7 ± 10
same,"Total sleep time (TST), average","[1]; Average of 5 dogs, saline control 20.9 ± 8.3",16.4 ± 8.5%
same,"Sleep latency, average","[1]; Average of 5 dogs, saline control 91.4 ± 14",142 ± 61.4 min
same,Sleep latency (minutes until onset of non-REM sleep),[1]; Test dog 1,47 min
same,Sleep disordered breathing index (SDBI),[1]; Test dog 1,7.2
same,Total sleep time (TST),[1]; Test dog 1,18.5%
same,Sleep latency (minutes until onset of non-REM sleep),[1]; Test dog 2,149 min
same,Sleep disordered breathing index (SDBI),[1]; Test dog 2,8.2
same,Total sleep time (TST),[1]; Test dog 2,17.0%
same,Sleep latency (minutes until onset of non-REM sleep),[1]; Test dog 3,145 min
same,Sleep disordered breathing index (SDBI),[1]; Test dog 3,2.6
same,Total sleep time (TST),[1]; Test dog 3,26.7%
same,Sleep latency (minutes until onset of non-REM sleep),[1]; Test dog 4,150 min
same,Sleep disordered breathing index (SDBI),[1]; Test dog 4,0.0
same,Total sleep time (TST),[1]; Test dog 4,17.0%
same,Sleep latency (minutes until onset of non-REM sleep),[1]; Test dog 5,219 min
same,Sleep disordered breathing index (SDBI),[1]; Test dog 5,25.7
same,Total sleep time (TST),[1]; Test dog 5,3.0%
same,non-REM sleep RDI (respiratory disturbance incidents),[2]; 100 mg/kg i.v.,8 per hour
same,Arousal index,[2]; 100 mg/kg i.v.,16
same,REM sleep RDI (respiratory disturbance incidents),[2]; 100 mg/kg i.v.,53 per hour
same,Lowest O2 saturation,[2]; 100 mg/kg i.v.,92
same,Mean sleep efficiency,[2]; 100 mg/kg i.v.,41%
same,"non-REM sleep-disordered breathing events, result in words","[2]; 200 mg/kg and above, i.v.",significant reduction in non-REM sleep-disordered breathing events
same,non-REM sleep RDI (respiratory disturbance incidents),"[2]; 200 mg/kg i.v., p < 0.05",0 per hour
same,Arousal index,[2]; 200 mg/kg i.v.,7
same,REM sleep RDI (respiratory disturbance incidents),[2]; 200 mg/kg i.v.,70 per hour
same,Lowest O2 saturation,[2]; 200 mg/kg i.v.,86
same,Mean sleep efficiency,[2]; 200 mg/kg i.v.,37%
same,"REM sleep occurrence, result in words","[2]; 400 mg/kg and 800 mg/kg, i.v.",the animal did not enter REM sleep
same,non-REM sleep RDI (respiratory disturbance incidents),[2]; 400 mg/kg i.v.,4 per hour
same,Arousal index,[2]; 400 mg/kg i.v.,12
same,Lowest O2 saturation,[2]; 400 mg/kg i.v.,92
same,Mean sleep efficiency,[2]; 400 mg/kg i.v.,40%
same,non-REM sleep RDI (respiratory disturbance incidents),"[2]; 800 mg/kg i.v., p < 0.05",2 per hour
same,Arousal index,"[2]; 800 mg/kg i.v., p < 0.05",6
same,Lowest O2 saturation,[2]; 800 mg/kg i.v.,93
same,Mean sleep efficiency,[2]; 800 mg/kg i.v.,38%
same,"Dose dependence of non-REM breathing-decline episodes, result in words",[2]; 100 to 800 mg/kg i.v.,dose-dependent reduction in the number of episodes where breathing declines during non-REM sleep
same,"Number of arousals per hour, result in words","[2]; i.v., versus saline",did reduce the number of arousals per hour
same,"Oxyhemoglobin saturation during breathing episodes, result in words","[2]; i.v., versus saline",no effect on oxyhemoglobin saturation during breathing episodes
same,"Sleep efficiency, result in words","[2]; i.v., versus saline",did not affect sleep efficiency
same,"REM sleep RDI, result in words","[2]; lower dose levels, i.v.",there does not appear to have been an impact on REM sleep RDI
same,Water consumption,"[3]; 5 mg/kg/day or above i.v., from day 2-3 until about week 4",increased in both sexes
same,Day by which polyuria disappeared,[3]; 5 mg/kg/day or higher i.v.,4 to 28 days
same,Time of polyuria peak,"[3]; 5 mg/kg/day or higher i.v., from day 0-3",peaked at about one hour after dosing
same,Transient polyuria,"[3]; 5 mg/kg/day or higher i.v., males and females",almost all males and females showed transient polyuria
same,Mortality,"[3]; 0.05, 0.5, 5 and 50 mg/kg/day i.v., administration and recovery periods",no death occurred
same,Hematological changes relative to normal range,"[3]; 50 mg/kg/day i.v., both sexes",within the range of normal physiological variations
same,"Red blood cell count, hemoglobin and hematocrit","[3]; 50 mg/kg/day i.v., both sexes","increasing tendency in red blood cell count, hemoglobin and hematocrit"
same,Total white blood cell count,"[3]; 50 mg/kg/day i.v., both sexes",decreasing tendency in total white blood cell count
same,Systemic tremor,"[3]; 50 mg/kg/day i.v., both sexes, from day 0",systemic tremor was observed transiently during the injection in both sexes
same,Day by which systemic tremor disappeared,"[3]; 50 mg/kg/day i.v., females",≤ 4 days
same,Day by which systemic tremor disappeared,"[3]; 50 mg/kg/day i.v., males",≤ 6 days
same,Reversibility of observed changes,"[3]; after discontinuing administration, four-week recovery",All observed changes were reversed by discontinuing administration
same,Incidence of hypertrophy of serous cells in the submaxillary gland (histopathology),"[3]; both sexes, all treatment groups, i.v.",showed dose-dependency in both sexes of all treatment groups
same,Food consumption and body weight changes,"[3]; females, i.v.",unremarkable
same,Blood biochemical parameters,[3]; i.v.,No treatment-related abnormalities were observed
same,Gross changes at autopsy,[3]; i.v.,no treatment-related grossly abnormal changes
same,Histopathology of other organs (light microscopy),[3]; i.v.,no remarkable changes were shown at the light microscopic level
same,Liver and kidney electron microscopical examination,[3]; i.v.,nor were there any abnormal changes in the liver or kidney
same,Other hematological parameters,[3]; i.v.,not related to the dose
same,Urinary findings (other than urine volume),[3]; i.v.,unremarkable
same,Other clinical signs,"[3]; i.v., administration and recovery periods",no other remarkable clinical signs
same,Urine volume,"[3]; males and females, 5 mg/kg/day or above i.v., week 2 and 5",increase in urine volume
same,Body weight gain,"[3]; males, particularly 0.5, 5 and 50 mg/kg/day i.v.",body weight gain was suppressed in males
same,Food consumption,"[3]; treated males, versus control males, i.v.",tended to decrease food consumption
same,Central nervous system effect,[4],exhibits central nervous system stimulating effects
